{"source": "patent US12435025B2", "about": "“Triphenylphosphonium-tethered salicylamine derivatives” (MTI BIOTECH, INC., priority 2019, dated 2025)", "key": {"[1]": {"experiment": "Single ascending dose study: safety and tolerability (adverse events, ECG, vital signs, laboratory parameters)", "format": "in vivo, human", "excerpt": "(§1) Healthy male and non-pregnant female volunteers over 18 years of age were eligible to participate. Subjects were not permitted to take any medications 2 weeks prior to or during the study. Exclusion criteria included known cardiac, kidney, or hepatic disease; presence of diseases that could manifest morbidity or symptoms/signs that could confound interpretation of the study results; the need to discontinue any drug administered as standard of care treatment; and the unwillingness or inability to use approved birth-control methods.\n(§2) This study was an open-label, single ascending dose study designed to assess pharmacokinetics, safety, and tolerability of single doses of 2-hydroxybenzylamine acetate. A 3+3 clinical trial design with a modified Fibonacci sequence dosing scheme^14 was used with a starting dose of 50 mg; thereafter, dosages were increased to 100, 200, 330, 550, and 825 mg. These doses of 2-hydroxybenzylamine acetate correspond to 34, 68, 136, 224, 373, and 560 mg 2-hydroxybenzylamine. Each dose escalation was initiated only after reviewing safety data from all subjects receiving the previous dose.\n(§3) Subjects were admitted to the Vanderbilt University Clinical Research Center and remained on the unit for 24 hours after administering 2-hydroxybenzylamine acetate orally in capsules to participants. […] Subjects were monitored at protocol-defined intervals for 24 hours after administration of 2-hydroxybenzylamine. Safety assessments included vital signs (heart rate, respiration rate, blood pressure, and SpO2), clinical laboratory parameters (blood biochemistry, hematology, and urinalysis), 12-lead ECGs, and potential adverse event assessments. All adverse events were recorded, regardless of whether they were considered study-related."}, "[2]": {"experiment": "Single ascending dose study: plasma pharmacokinetics of 2-hydroxybenzylamine", "format": "in vivo, human", "details": "for Cmax / Tmax / AUC(0-inf) / half-life: both sexes, human, plasma; for AUC(0-inf): read-out: AUC (zero to infinity)", "excerpt": "as §1\n2-Hydroxybenzylamine (as the acetate salt, CAS 1206675-01-5) was obtained from TSI (China) Co., Ltd. (Shanghai, China). A commercial production lot was used (Lot 16120312). Our laboratory verified the purity of the commercial lot to be >99% via HPLC and NMR spectroscopy. Hard gel capsules (Capsugel, Jiangsu, China) containing 50, 110, and 412.5 mg of 2-hydroxybenzylamine acetate (corresponding to 34, 75, and 281 mg 2-hydroxybenzylamine) were prepared by TSI (China) Co., Ltd. Determinations of average fill weight, uniformity of weight, disintegration, 2-hydroxybenzylamine content, acetate content, and microbial and analytical tests were within all specification limits.\nas §2, §3\nBlood samples for pharmacokinetic analyses were collected at baseline, 0.25, 0.5, 1, 2, 6, 4, 8, and 24 hours after 2-hydroxybenzylamine acetate administration for all dose levels. The 0.25-hour sample was only collected for dosages≤200 mg, and the 6-h sample was only collected for dosages≥330 mg.\n[^2H4]-2-hydroxybenzylamine, prepared by Dr. Venkataraman Amarnath as previously described^11, was used as an internal standard. An internal standard solution (100 ng/mL) of ([^2H4]-2-hydroxybenzylamine was prepared in acetonitrile and added to all standards, quality control samples, and patient samples. Standard and quality control samples of 1 mg/mL 2-hydroxybenzylamine were prepared in water. Eight standard curve samples (5, 10, 20, 100, 200, 1000, 2000, and 5000 ng/mL) were prepared with blank human plasma (Bioreclamation, Westbury, NY). In addition, three quality control samples (15, 300, and 3000 ng/mL) were prepared in blank human plasma. Plasma samples were allowed to thaw at room temperature and then vortexed. Internal standard solution (400 μL) and 100 μL of either plasma, quality controls, or standards were added and mixed in a protein precipitation filter 96-well plate (Phenomenex, Torrance, CA). The solution was eluted into a 96-well plate using a positive pressure manifold and then dried under nitrogen gas at 40° C. The samples were then reconstituted in 97/3 v/v water/acetonitrile with 10 mM ammonium formate for analysis. […]"}, "[3]": {"experiment": "Half-life of SA in the blood", "format": "in vivo", "details": "estimated"}, "[4]": {"system": "γKA protein adducts", "details": "compared with PM; cited from earlier work"}, "[5]": {"system": "HepG2 cells", "details": "cited from earlier work"}, "[6]": {"system": "sodium channel", "details": "cited from earlier work"}, "[7]": {"details": "mice, drinking water, 1 to 10 grams per liter; cited from earlier work"}, "[8]": {"system": "paws injected with carrageenan", "details": "mice, intraperitoneally 200 mg/kg; cited from earlier work"}, "[9]": {"details": "in vivo; cited from earlier work"}, "[10]": {"details": "single oral dose 50 mg 2-hydroxybenzylamine acetate, mean, n = 3"}, "[11]": {"details": "single oral dose 100 mg 2-hydroxybenzylamine acetate, mean, n = 3"}}, "note": "Read-outs that look alike come from different tables or passages of the source."}
{"molecule": "CC(=O)O.NCc1ccccc1O", "note": "[2-Hydroxybenzylamine acetate, 2-hydroxybenzylamine acetate]", "values": [{"measurement": "Abdominal bloating", "setting": "[1]; both, human, in vivo, 24 h", "result": "1 n (%)"}, {"measurement": "Any event", "setting": "[1]; both, human, in vivo, 24 h", "result": "5 n (%)"}, {"measurement": "Frequent urination", "setting": "[1]; both, human, in vivo, 24 h", "result": "2 n (%)"}, {"measurement": "Headache", "setting": "[1]; both, human, in vivo, 24 h", "result": "1 n (%)"}, {"measurement": "Itchy throat", "setting": "[1]; both, human, in vivo, 24 h", "result": "1 n (%)"}, {"measurement": "Rash", "setting": "[1]; both, human, in vivo, 24 h", "result": "1 n (%)"}, {"measurement": "Sleepiness", "setting": "[1]; both, human, in vivo, 24 h", "result": "1 n (%)"}]}
{"molecule": "NCc1ccccc1O", "note": "[2-hydroxybenzylamine]", "values": [{"measurement": "Cmax", "setting": "[2]; [10]", "result": 90, "unit": "ng/mL"}, {"measurement": "Tmax", "setting": "[2]; [10]", "result": 1.33, "unit": "h"}, {"measurement": "AUC(0-inf)", "setting": "[2]; [10]", "result": 396, "unit": "ng·h/mL"}, {"measurement": "half-life", "setting": "[2]; single oral dose 50 mg 2-hydroxybenzylamine acetate, mean, n = 3, read-out: Half-life (converted)", "result": 122, "unit": "min"}, {"measurement": "Cmax", "setting": "[2]; [11]", "result": 156, "unit": "ng/mL"}, {"measurement": "Tmax", "setting": "[2]; [11]", "result": 1.33, "unit": "h"}, {"measurement": "AUC(0-inf)", "setting": "[2]; [11]", "result": 622, "unit": "ng·h/mL"}, {"measurement": "half-life", "setting": "[2]; single oral dose 100 mg 2-hydroxybenzylamine acetate, mean, n = 3, read-out: Half-life (converted)", "result": 140, "unit": "min"}, {"measurement": "half-life", "setting": "[2]; single oral doses, overall mean, read-out: mean half-life (converted)", "result": 126, "unit": "min"}, {"measurement": "AUCextrap", "setting": "[2]; [10]", "result": 9.1, "unit": "%"}, {"measurement": "AUCextrap", "setting": "[2]; [11]", "result": 11.2, "unit": "%"}, {"measurement": "Cmax and AUC versus dose", "setting": "[2]; single oral doses 50-825 mg 2-hydroxybenzylamine acetate", "result": "dose-dependent changes"}, {"measurement": "serious adverse events or deaths", "setting": "[1]; all doses", "result": "no serious adverse events or deaths"}, {"measurement": "participants who reported at least 1 adverse event", "setting": "[1]; both, human, in vivo, 24 h", "result": 28, "unit": "%"}, {"measurement": "subjects with frequent urination (most common adverse event)", "setting": "[1]; both, human, in vivo, 24 h", "result": 11, "unit": "%"}, {"measurement": "adverse event frequency or severity versus dose", "setting": "[1]; in vivo", "result": "no dose-dependent increase"}, {"measurement": "changes in ECG recordings, vital signs, or laboratory parameters", "setting": "[1]; in vivo", "result": "No clinically significant changes"}, {"measurement": "intensity of adverse events", "setting": "[1]; in vivo", "result": "mild"}, {"measurement": "study-related adverse events", "setting": "[1]; in vivo", "result": "No adverse events were determined to be study-related"}, {"measurement": "half-life", "setting": "[3]", "result": "~120", "unit": "min"}, {"measurement": "inhibition of γKA protein adducts in cells", "setting": "[4]", "result": "significantly better inhibitor of γKA protein adducts in cells than PM"}, {"measurement": "protection of HepG2 cells from cytotoxicity induced by hydrogen peroxide", "setting": "[5]", "result": "protects"}, {"measurement": "protection of sodium channel function inhibited by γKA or oxidants", "setting": "[6]", "result": "protects"}, {"measurement": "tissue concentrations", "setting": "[7]", "result": "10 to 500", "unit": "µM"}, {"measurement": "edema in paws injected with carrageenan", "setting": "[8]", "result": "decreased edema"}]}
{"molecule": "Cc1ncc(CO)c(CN)c1O", "note": "[PM, pyridoxamine]", "values": [{"measurement": "protection of HepG2 cells from cytotoxicity induced by hydrogen peroxide", "setting": "[5]", "result": "ineffective"}]}
{"molecule": "O=C(O)c1ccccc1O", "note": "[salicylic acid]", "values": [{"measurement": "salicylate in the blood bound to protein", "setting": "[9]", "result": "80-90%"}]}
